Measurements: BindingDB's records for doi:10.1021/jm991038t (Max-Planck Research Unit, 1999)

Assay: Inhibition constant(Ki) for inhibition of PPIase activity of Legionella pneumophilia FK506 binding protein 25 (Conc=40 nM) of FKBPs family

`C[C@@H]1C[C@@H]([C@H](O)CC2CC(=O)NC(=O)C2)C(=O)[C@@H](C)C1` [Cycloheximid] gave a Ki of 124 µM.
